According to US20250186442A1, “Obicetrapib and Ezetimibe Combination Treatment and Fixed Dose Pharmaceutical Compositions” (NewAmsterdam Pharma B.V., priority 2022, published 2025):

How the values were obtained:
Solubility in water = assay type: physicochemical; conditions: in water at 20° C.
Text: Solubility is especially challenging with obicetrapib. […] It would be desirable to have a solid form of obicetrapib that would deliver a larger amount of obicetrapib.

LDL-C = conditions: cited from earlier work
HDL-C = conditions: TA-8995-03; 10 mg daily dose, mild dyslipidemia; cited from earlier work
ApoA1 = conditions: TA-8995-03; 10 mg daily dose, mild dyslipidemia; cited from earlier work
Lp(a) = conditions: TA-8995-06; following 12 weeks of treatment; cited from earlier work
QTcF = conditions: TA-8995-04; cited from earlier work
P-glycoprotein = molecular target: T1, P-glycoprotein (Homo sapiens, UniProt P08183); conditions: TA-8995-05; cited from earlier work
T1 construct: endogenous in cells; host or cells: study subjects in vivo (clinical study)
T1 sequence (P08183 whole entry): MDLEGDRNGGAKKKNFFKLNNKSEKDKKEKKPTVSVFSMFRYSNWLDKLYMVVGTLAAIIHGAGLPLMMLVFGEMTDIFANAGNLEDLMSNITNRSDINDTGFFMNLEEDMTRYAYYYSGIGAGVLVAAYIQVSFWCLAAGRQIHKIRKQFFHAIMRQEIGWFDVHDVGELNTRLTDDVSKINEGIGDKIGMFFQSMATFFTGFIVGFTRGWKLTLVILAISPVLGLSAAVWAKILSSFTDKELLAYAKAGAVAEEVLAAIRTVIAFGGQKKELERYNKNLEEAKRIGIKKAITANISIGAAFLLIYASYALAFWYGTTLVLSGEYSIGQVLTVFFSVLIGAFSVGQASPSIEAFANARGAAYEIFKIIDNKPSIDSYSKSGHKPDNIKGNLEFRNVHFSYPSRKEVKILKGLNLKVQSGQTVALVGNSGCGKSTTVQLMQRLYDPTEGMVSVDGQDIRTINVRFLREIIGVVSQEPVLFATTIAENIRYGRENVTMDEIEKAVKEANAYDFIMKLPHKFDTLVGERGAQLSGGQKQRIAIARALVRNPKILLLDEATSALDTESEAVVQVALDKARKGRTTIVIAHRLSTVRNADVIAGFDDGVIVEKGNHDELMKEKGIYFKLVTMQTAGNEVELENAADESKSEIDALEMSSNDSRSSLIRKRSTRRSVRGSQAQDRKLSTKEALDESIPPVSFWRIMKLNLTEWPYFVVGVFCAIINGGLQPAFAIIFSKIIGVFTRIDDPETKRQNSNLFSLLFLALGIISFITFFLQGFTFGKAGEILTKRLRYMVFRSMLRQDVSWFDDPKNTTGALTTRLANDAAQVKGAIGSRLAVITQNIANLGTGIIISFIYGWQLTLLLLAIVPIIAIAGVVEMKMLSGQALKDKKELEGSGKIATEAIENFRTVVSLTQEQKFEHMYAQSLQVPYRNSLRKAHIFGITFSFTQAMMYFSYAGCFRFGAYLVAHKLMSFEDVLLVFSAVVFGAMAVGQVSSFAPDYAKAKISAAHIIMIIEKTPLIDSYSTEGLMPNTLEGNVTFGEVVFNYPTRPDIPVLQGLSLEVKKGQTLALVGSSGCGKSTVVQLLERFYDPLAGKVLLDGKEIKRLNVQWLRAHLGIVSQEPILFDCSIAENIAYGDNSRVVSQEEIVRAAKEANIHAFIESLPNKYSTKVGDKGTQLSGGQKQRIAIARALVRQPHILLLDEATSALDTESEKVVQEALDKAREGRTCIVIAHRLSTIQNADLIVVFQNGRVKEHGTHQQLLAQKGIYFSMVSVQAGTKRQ

[1] = TA-8995-07, healthy males; cited from earlier work

Question: For CCOC(=O)N1c2ccc(C(F)(F)F)cc2[C@@H](N(Cc2cc(C(F)(F)F)cc(C(F)(F)F)c2)c2ncc(OCCCC(=O)O)cn2)C[C@H]1CC [Obicetrapib, {4-[(2-{[3,5-bis(trifluoromethyl)benzyl][(2R,4S)-1-(ethoxycarbonyl)-2-ethyl-6-(trifluoromethyl)-1,2,3,4-tetrahydroquinolin-4-yl]amino}pyrimidin-5-yl)oxy]butanoic acid}], which solubility (Solubility in water) is on record?
Answer: < 100 µg/mL

Question: And the LDL-C reduction (LDL-C; TA-8995-03, 10 mg daily dose, mild dyslipidemia)?
Answer: 45.4%

Question: What about the “additional reduction in LDL-C” value (LDL-C; obicetrapib 10 mg on top of atorvastatin 20 mg) of the same molecule?
Answer: 50.3%

Question: And the HDL-C efflux capacity (HDL-C)?
Answer: significant increase

Question: And the HDL-C increase (HDL-C)?
Answer: 179.0%

Question: What about the ApoA1 increase (ApoA1) of the same molecule?
Answer: 63.4%

Question: What about the “Lp(a) levels” value (Lp(a)) of the same molecule?
Answer: statistically significant reduction

Question: What about the “effect on the QTcF” value (QTcF) of the same molecule?
Answer: no effect

Question: And the “effect on P-glycoprotein activity” value (P-glycoprotein)?
Answer: no significant effect

Question: What about the absorption [1] of the same molecule?
Answer: steadily absorbed

Question: And the “principal route of excretion” value [1]?
Answer: in the feces
